Where two headings read alike, the source gives them in different places.
Legend:
SiHa cells [1] = experiment: SiHa cell viability IC50 (CCK-8); assay type: cell-based, human
Method: NAT10^± SiHa cells and SiHa cells treated with DMSO, Remodelin or NP1192 for 36 h were seeded into the wells of a 96-well microplate at identical densities of 2000 or 3000 cells per well. After the cells adhered to the well surface, 110 μL of a 1:10 mixture of CCK-8 reagent (Meilunbio, China) and RPMI 1640 medium was added to each well. The microplate was then incubated for another 2 h in the incubator, and the mixture was replaced with an equal volume of medium. A microplate reader (BioTek, US) was used to measure the absorption at a wavelength of 450 nm.

NP1192^Resist SiHa cells = experiment: IC50 and resistance index in NP1192-resistant SiHa cells (CCK-8); assay type: cell-based, human
Method: We generated Remodelin-resistant (Remodelin^Resist SiHa) and NP1192-resistant (NP1192^Resist SiHa) SiHa CCa cell lines by applying a stepwise dose escalation strategy, as previously described in the literature. To quantitatively assess resistance, we calculated the resistance index for each subline following the established methodologies. Briefly, 3000 cells per well were seeded in 96-well plates and treated with increasing concentrations of Remodelin or NP1192 (0, 10, 50, 100, and 150 μM) for 24 h. Following treatment, 10 μL of CCK-8 reagent was added to each well and incubated for an additional 2 h. Absorbance at 490 nm was measured, and the IC50 values were calculated using GraphPad Prism 9.0. The RI was defined as the ratio of the IC50 in resistant cells to that in parental cells.

[2] = Pharmacokinetic study in male SD rats; assay type: in vivo; settings: Sprague-Dawley (SD), rat, plasma; for AUC(0-t): 0–24 h; for MRT last: read-out: MRT(0−t); for MRT inf: read-out: MRT(0−∞)
Method: Male SD rats (180–220 g) were purchased from Beijing Vital River Laboratory Animal Technology Co., Ltd. Blood samples (0.25 mL) were collected from the tail vein at 0.0833, 0.25, 0.5, 1, 2, 4, 6, 8, and 24 h after oral (10 mg/kg) or intravenous (2 mg/kg) administration of compound NP1192. Drug concentrations in the samples were determined by using liquid chromatography–mass spectrometry (LC-MS/MS). The mobile phase consisted of a mixture of solvent A (acetonitrile) and solvent B (formic acid/ultrapure water, 1:1000, v/v). The flow rate of the mobile phase was 0.3 mL/min, and the injection volume was 10 μL.

U14 cells = experiment: Lactic acid, ATP and 2-NBDG uptake assays in U14 cells; assay type: cell-based, murine; settings: U14, 20 μM, 36 h
Method: SiHa and U14 cells (2 × 10^5 cells per well) were plated in 6-well plates and cultured in RPMI 1640 medium or DMEM supplemented with 10% FBS and 1% penicillin–streptomycin. After cell adherence, 20 μM NP1192 or DMSO was added and incubated for 36 h, and the assays were performed according to the instruction manuals for the Lactate Assay Kit (Nanjing Jiancheng, China), ATP Assay Kit (Beyotime, China), and 2-NBDG reagent (GlpBio, US). All data analyses were performed via GraphPad Prism 9, and the data are presented as the means ± SEMs.

SiHa cells [3] = experiment: Colony formation assay in SiHa cells; assay type: cell-based, human; settings: pretreated 20 μM 36 h, 2 weeks
Method: NAT10^± SiHa cells and SiHa cells treated with DMSO, Remodelin or NP1192 for 36 h were seeded into the wells of a 6-well microplate at identical densities of 2000 or 3000 cells per well. The cells were then incubated in the incubator for at least 2 weeks to form colonies. After the incubation period, the cells were fixed with formalin and then stained with crystal violet. The colonies were then counted via a microscope. The number and size of the colonies in the experimental groups were compared.

SiHa cells [4] = experiment: Transwell invasion assay in SiHa cells; assay type: cell-based, human; settings: pretreated 20 μM 36 h, 12 h
Method: The Transwell chamber was assembled by coating the porous membrane insert in the top compartment with Matrigel to form a layer of extracellular matrix (ECM), and the top compartment was placed into a cell culture plate. NAT10^± SiHa cells and SiHa cells treated with DMSO, Remodelin or NP1192 for 36 h were collected and resuspended in serum-free medium at a density of 10,000 cells/200 μL of medium. Then, the cell suspension was added to the top compartment of the Transwell chamber, and the plate was placed in the incubator for 12 h. After incubation, the cells on the bottom surface of the membrane were fixed and stained. The cells were visualized under a microscope, and the number of cells that migrated through the membrane was determined via ImageJ software.

HFF-1 cells = experiment: Cytotoxicity in nonmalignant HFF-1 cells; assay type: cell-based, human; settings: HFF-1 cells with low NAT10 expression
HIF-1α = HIF-1α protein level in SiHa cells, Western blot; assay type: cell-based, human; settings: 36 h
Method: RIPA lysis buffer (Beyotime, China) mixed with 1% protease inhibitor (Sigma, US) was added to the cells, and a sample of total protein was obtained and then loaded onto an 8% or 12% polyacrylamide gel. The gel was placed in a buffer solution, and an electric current was applied. The separated proteins were subsequently transferred from the gel onto a PVDF membrane. Next, the membrane was blocked with 5% milk for 1 h to prevent nonspecific antibody binding. The membranes were subsequently incubated with anti-NAT10 (1:1000, Abcam, USA), anti-PD-L1 (1:1000, Proteintech, China), anti-HIF-1α (1:1000, Abmart, China), and anti-β-tubulin (1:1000, Proteintech, China) primary antibodies for 12 h. Afterward, the membrane was sequentially washed with 1× TBST and incubated for 1 h with an antimouse secondary antibody (1:6000, Elabscience, China) or antirabbit secondary antibody (1:6000, Elabscience, China). The target proteins were detected via chemiluminescence with a ChemiDoc MP Imaging System (Bio-Rad, US).

[5] = tested on: CD8+ TILs, M2 macrophages, MDSCs and Treg cells in U14 xenograft tumors; settings: Figure 7A
Method: U14 cells (1 × 10^7 cells per mouse, approximately 100–150 μL of cell suspension) were implanted subcutaneously into the lateral lower dorsal surface of each mouse. The tumors were allowed to grow for 7 days, and the mice were then administered one of five treatments (group 1: U14 cells + DMSO; group 2: U14 cells + Remodelin; group 3: U14 cells + anti-PD-L1 antibody; group 4: U14 cells + NP1192; group 5: U14 cells + anti-PD-L1 antibody + NP1192). Each group of mice was assigned according to the principles of randomization and the blinding method. Tumors were measured every 2 days, and tumor volume was calculated via the following equation: volume = (width)^2 × length/2. Remodelin and NP1192 were injected into the peritumoral area every 2 days at a dose of 25 mg/kg, and the in vivo antimouse PD-L1 antibody (low endotoxin) was injected every 3 days at a dose of 2.5 mg/kg.
After the mice were euthanized, the tumor and peritumoral tissues were analyzed with an immunoflow kit (BioLegend, USA). The antibodies used for immunoflow cytometry included antihuman/mouse antibodies specific for CD11b-BV711, F4/80-AF647, CD206-PE, CD86-BV605, CD4-CD4-FITC IL-17-17-CY7/CY7, CD25-PE, FOXP3-AF647, CD4-BV605, CD45-PE/CY7, CD11b-BV711 and LY-6G/LY-6C-BV421 (BioLegend catalog no. 321239, RRID:AB_2860843). All data analyses were performed via GraphPad Prism 9, and the data are presented as the mean ± SEMs.

N#Cc1ccc(-c2csc(N(CCCCCCC(=O)N3CCN(c4cccc5c4C(=O)N(C4CCC(=O)NC4=O)C5=O)CC3)N=C3CCCC3)n2)cc1 (centres unmarked) [NP1192]
IC50 (SiHa cells [1]; Homo sapiens, parental SiHa cells, 36 h, read-out: IC50, inhibition of SiHa cell viability): 7.81 µM
IC50 lower than that of Remodelin (SiHa cells [1]; SiHa cells): 26.8%
resistance index (RI = IC50 resistant/parental SiHa) (NP1192^Resist SiHa cells; 76.2/7.814): 9.75
IC50 (NP1192^Resist SiHa cells; Homo sapiens, NP1192^Resist SiHa cells): 76.2 µM
Cmax ([2]; iv, i.v. 2 mg/kg): 759 ± 134 ng/mL
AUC(0-t) ([2]; iv, i.v. 2 mg/kg): 365 ± 42.6 ng·h/mL
AUC(0-inf) ([2]; iv, i.v. 2 mg/kg): 367 ± 43 ng·h/mL
Tmax ([2]; iv, i.v. 2 mg/kg): 0.0833 h
clearance ([2]; iv, i.v. 2 mg/kg): 91.7 mL/min/kg
half-life ([2]; iv, i.v. 2 mg/kg): 0.967 ± 0.214 h
MRT last ([2]; iv, i.v. 2 mg/kg): 0.529 ± 0.0268 h
MRT inf ([2]; iv, i.v. 2 mg/kg): 0.57 ± 0.0206 h
Vd ([2]; iv, i.v. 2 mg/kg, read-out: Vz): 7.6 ± 1.39 L/kg
bioavailability ([2]; oral, p.o. 10 mg/kg vs i.v. 2 mg/kg, read-out: oral bioavailability (F)): 1.35%
AUC(0-inf) ([2]; po, p.o. 10 mg/kg): 29.5 ± 1.59 ng·h/mL
Tmax ([2]; po, p.o. 10 mg/kg): 1.67 h
half-life ([2]; po, p.o. 10 mg/kg): 2.4 ± 1.15 h
MRT last ([2]; po, p.o. 10 mg/kg): 1.56 ± 0.358 h
MRT inf ([2]; po, p.o. 10 mg/kg): 2.85 ± 0.862 h
Cmax ([2]; po, p.o. 10 mg/kg): 13.9 ± 6.42 ng/mL
AUC(0-t) ([2]; po, p.o. 10 mg/kg): 24.7 ± 1.11 ng·h/mL
lactate levels (U14 cells): significantly decreased lactate levels
level of ATP production (U14 cells): increased markedly
absorbtion rate (glucose analog 2-NBDG) (U14 cells; Figure 4L, DMSO 9.57): 0.80
colony formation capacity (SiHa cells [3]): substantial decrease in colony formation capacity
cell invasion (SiHa cells [4]): substantially hindered CCa cell invasion
cytotoxicity in nonmalignant cells (HFF-1 cells): minimal cytotoxicity
HIF-1α protein levels (HIF-1α): decreased HIF-1α protein levels
Treg gate ([5]; CD4+CD25+FOXP3+): 0.00%
M2 (M2 macrophages gate) ([5]; CD11b+F4/80+CD206+): 8.10%
MDSC gate ([5]; CD11b+LY-6G+): 4.96%
CD8+ (CD8+ TILs gate) ([5]; tumors after treatment): 4.30%
